From patent US20090197922A1, “COMPOSITIONS AND METHODS FOR TREATING PULMONARY HYPERTENSION” (The University of Chicago, priority 2006, published 2009)
Entries after “also recorded” stand apart in the source; their conditions may differ.

Columns and labels:
[1] = Body weight of rats in hypoxia/SU5416 study; type: in vivo, rat; conditions: Dahl SS rats
Method: (§1) Fifteen Dahl Salt Sensitive strain rats were divided into 5 groups: normoxia+vehicle (normal, healthy control), hypoxia+vehicle (hypoxia control), hypoxia+SU5416 (positive control), hypoxia+sorafenib (safety comparison with SU5416), and hypoxia+sorafenib+SU5416 (therapeutic activity assessment). Echocardiograms were performed on all rats at the start of the experiment. Except for the normoxia group, all rats were maintained in a hypoxia chamber with a partial pressure of oxygen of 10% FiO2 for the duration of the experiment. Rats in the 2 SU5416 groups received one subcutaneous injection of SU5416 at the start of the experiment (20 mg/kg). Stock sorafenib solutions were prepared every three days, crushing and dissolving sorafenib tablets in EL/ethanol (50:50; Sigma Cremophor EL, 95% ethyl alcohol) at final concentration of 4 mg/mL, protected from light exposure and stored at room temperature. Final dosing solutions were prepared on the day of use by dilution of the stock solution to 1 mg/mL with water and administered by gavage to the rats daily. After 3 weeks, all rats had echocardiography and hemodynamic studies. Organ and blood specimens were obtained for further evaluation.

[2] = tested on: hypoxia-induced model of pulmonary hypertension in Dahl SS rats; assay: Hemodynamic study (pressures, RV/LV weights) in hypoxia/SU5416 model of pulmonary hypertension; type: in vivo, rat; conditions: for BP mmHg (+/−) SE / PA mmHg (+/−) SE / RVSP mmHg (+/−) SE: 3½ Wk hypoxia (10% FiO2), sorafenib daily 2.5 mg/Kg, SU5416 day zero 20 mg/kg, 2 experiments as one cohort; for development of pulmonary hypertension (right ventricular and pulmonary artery pressures, right ventricle/left ventricular weights): hypoxia 10% FiO2, 3 weeks, SU5416 20 mg/kg once, sorafenib by gavage daily
Method: As part of the spectrum of sorafenib's pharmacologic activity overlaps with SU5416, a study was performed to determine whether sorafenib had similar effects or with additional mechanisms of inhibitory activity could counteract the effects of SU5416. Dahl Salt Sensitive rats were divided into 5 groups: normoxia+vehicle (normal, healthy control), hypoxia+SU5416 (positive control), hypoxia+sorafenib (safety comparison with SU5416), and hypoxia+sorafenib+SU5416 (therapeutic activity assessment). Echocardiograms were performed on all rats at the start of the study. Except for the normoxia group, all rats were maintained in a hypoxia chamber with a partial pressure of oxygen of 10% FiO2 for the duration of the study. Rats in the two SU5416 groups received one subcutaneous injection of SU5416 at the start of the study (20 mg/kg). Stock sorafenib solutions were prepared every three days, crushing and dissolving sorafenib tablets in EL/ethanol (50:50; Sigma Cremophor EL, 95% ethyl alcohol) at final concentration of 4 mg/mL, protected from light exposure and stored at room temperature. Final dosing solutions were prepared on the day of use by dilution of the stock solution to 1 mg/mL with water and administered by gavage to the rats daily. […] Organ and blood specimens were obtained for further evaluation. […] RV 3DE measurements were also determined (diameters+area), A=RV major diameter, B=RV annulus diastolic diameter & area, C=RV at ⅓ RV major diameter & area, D=RV at ⅔ RV major diameter & area.
(§2) Protocol includes an initial administration of SU5416 subcutaneously at 20 mg/kg followed daily by sorenfenib oral daily doses of 2.5 mg/kg. Some animals were exposed to chronic hypoxia (10% O2). The animals were divided into five experimental groups: hypoxia+sorafenib; hypoxia+SU5416+sorafenib, normoxia+vehicle control; Hypoxia+vehicle; and hypoxia+SU5416. PAP, RVSP, Echo, and DNA microarrays were used to measure various physiological and molecular biological parameters. FIG. 4 illustrates that hypoxia/SU5416-induces increases in right heart pressures and right heart hypertrophy (RV/LV+Septum).
as §1, with “After 3 weeks, all rats had echocardiography and hemodynamic studies.” left out

[3] = tested on: hypoxia-induced model of pulmonary hypertension in Dahl SS rats; conditions: previously demonstrated; cited from earlier work
[4] = tested on: hypoxia-induced model of pulmonary hypertension in Dahl SS rats; assay: Echocardiography in hypoxia/SU5416 model of pulmonary hypertension; type: in vivo, rat; design: CO (PA): unit not given beside the values; RVAW / LVPW / CO (Ao) / MPA: unit not given here; conditions: echocardiogram
Method: As part of the spectrum of sorafenib's pharmacologic activity overlaps with SU5416, a study was performed to determine whether sorafenib had similar effects or with additional mechanisms of inhibitory activity could counteract the effects of SU5416. […] Echocardiograms were performed on all rats at the start of the study. Except for the normoxia group, all rats were maintained in a hypoxia chamber with a partial pressure of oxygen of 10% FiO2 for the duration of the study. Rats in the two SU5416 groups received one subcutaneous injection of SU5416 at the start of the study (20 mg/kg). Stock sorafenib solutions were prepared every three days, crushing and dissolving sorafenib tablets in EL/ethanol (50:50; Sigma Cremophor EL, 95% ethyl alcohol) at final concentration of 4 mg/mL, protected from light exposure and stored at room temperature. Final dosing solutions were prepared on the day of use by dilution of the stock solution to 1 mg/mL with water and administered by gavage to the rats daily. After 3 weeks, all rats had echocardiography and hemodynamic studies. Organ and blood specimens were obtained for further evaluation. […] RV 3DE measurements were also determined (diameters+area), A=RV major diameter, B=RV annulus diastolic diameter & area, C=RV at ⅓ RV major diameter & area, D=RV at ⅔ RV major diameter & area.
as §1, with “Echocardiograms” for “Fifteen Dahl Salt Sensitive strain rats were divided into 5 groups: normoxia+vehicle (normal, healthy control), hypoxia+vehicle (hypoxia control), hypoxia+SU5416 (positive control), hypoxia+sorafenib (safety comparison with SU5416), and hypoxia+sorafenib+SU5416 (therapeutic activity assessment). Echocardiograms”

rat lung tissue = assay: Expression profiling of rat lung tissue RNA (Rat Chip II, Affymetrix); type: in vivo; conditions: compared to normoxia; GCRMA normalization, SAM (δ>0.639, minimum fold change>1.7)
Text: To study potential mechanisms of sorafenib effects on PH RNA was isolated from rat lung tissue and analyzed using the Rat Chip II (Affymetrix). […] Mechanisms of PAH pathobiology is poorly understood therefore, to explore potential mechanistic pathways the inventors conducted bioinformatic studies and expression profiling. […] The candidate genes identified fell into various gene ontology classes, for example 4% were in the lung development and growth factors class (e.g., Bambi, Tgfb3, Ltbp2), 13% in the cell migration/ECM class (e.g., Itga3_predicted, Cspg4, Cxcll2, Reln, Col18a1, Cthrc1, Hmgcr, Cnn1, Col6a2, Jag2), 4% in the apoptosis class (e.g., Anzal, Col18a1, Jag2), 4% in the smooth muscle/fiber formation class (e.g., Des, Tpm3, Jph2), 10% in the cell proliferation class (e.g., Anxal, Timp1, Lamb—1 predicted, Cspg4, Cxcll2, Gja4, Jag2, Tgfb3), 6% in the blood vessel development class (e.g., Cxcll2, Cspg4, Gja4, Col18a1, Serpine1), and 5% in the angiogenesis class (Cxcl12, Cspg4, Col18a1, Serpine1).

rat lung vasculature = assay: Rat lung histopathology (H&E sections, Heath-Edwards grading); type: in vivo; conditions: Dahl SS rats, Hypoxia+SU5416+Sorafenib vs Hypoxia+SU5416, H/E sections
Method: The Heath-Edwards grading system grades pulmonary hypertension by microscopic features. The general classification is as follows:
as §2

[5] = cited from earlier work
[6] = room temperature and neutral pH; cited from earlier work
[7] = Wade et al., 2004; cited from earlier work
PAH patients = conditions: case report, combination therapy with imatinib at 3 and 6 months; cited from earlier work
[8] = PRE (baseline at start of experiment)

Compound	Wt ([1]; POST (after 3 weeks hypoxia)) [g]	Wt [1, 8] [g]	BP mmHg (+/−) SE [2]	PA mmHg (+/−) SE [2]	RVSP mmHg (+/−) SE [2]	development of pulmonary hypertension (right ventricular and pulmonary artery pressures, right ventricle/left ventricular weights) [2]	CI (Ao) ([4]; POST (after 3 weeks hypoxia))	CI(PA) ([4]; POST (after 3 weeks hypoxia))	CO (Ao) ([4]; POST (after 3 weeks hypoxia))	CO (PA) ([4]; POST (after 3 weeks hypoxia))	FS (%) ([4]; POST (after 3 weeks hypoxia))	LV Mass (gram) ([4]; POST (after 3 weeks hypoxia))	LVPW ([4]; POST (after 3 weeks hypoxia))	MPA ([4]; POST (after 3 weeks hypoxia))	PA PG (mmHg) ([4]; POST (after 3 weeks hypoxia))	TV max PG (mmHg) ([4]; POST (after 3 weeks hypoxia))	CI (Ao) [4, 8]	CI(PA) [4, 8]	CO (Ao) [4, 8]	CO (PA) [4, 8]	also measured
Cc1cc(C)c(/C=C2\C(=O)Nc3ccccc32)[nH]1 [SU5416]	324 ± 22	328 ± 11	78 +/− 4 mmHg	33 +/− 3 mmHg	30 +/− 4 mmHg	developed pulmonary hypertension	0.82 ± 0.22	0.87 ± 0.14	261 ± 55	279 ± 69	63 ± 4	1.25 ± 0.33	0.16 ± 0.02	0.41 ± 0.05	2.05 ± 0.92	5.63 ± 4.07	0.95 ± 0.06	1.21 ± 0.26	310 ± 10	400 ± 99	effect on pulmonary hypertension in hypoxic rats (previous reports) [3]: exacerbate pulmonary hypertension; RVAW ([4]; POST (after 3 weeks hypoxia)): 0.16 ± 0.03; FS (%) [4, 8]: 71 ± 11%; LV Mass (gram) [4, 8]: 1.30 ± 0.14 gram; LVPW [4, 8]: 0.16 ± 0.04; MPA [4, 8]: 0.45 ± 0.01; PA PG (mmHg) [4, 8]: 3.65 ± 2.76 mmHg; RVAW [4, 8]: 0.07
CNC(=O)c1cc(Oc2ccc(NC(=O)Nc3ccc(Cl)c(C(F)(F)F)c3)cc2)ccn1 [Sorafenib]	331 ± 15	328 ± 10	97 +/− 4 mmHg	18 +/− 2 mmHg	17 +/− 2 mmHg	attenuated physiologic and histopathologic changes in PAH; also recorded: protect SU5416-treated hypoxia-exposed rats from pulmonary arterial hypertension	1.00 ± 0.80	0.82 ± 0.17	326 ± 246	271 ± 48	68 ± 20	1.30 ± 0.10	0.18 ± 0.03	0.38 ± 0.07	3.87 ± 0.95	4.85 ± 3.46	1.77 ± 1.30	1.70 ± 1.43	577 ± 418	551 ± 467	genes differentially regulated (rat lung tissue): at least 179 genes; development of pulmonary hypertension (right ventricular and pulmonary artery pressures, right ventricle/left ventricular weights) ([2]; listed as sorafenib): prevents hypoxia+SU5416 induced pulmonary hypertension and remodeling; also recorded: no significant change in pressures or weights; also recorded: does not exacerbate hypoxia-induced hypertension; development of pulmonary hypertension (right ventricular and pulmonary artery pressures, right ventricle/left ventricular weights) ([2]; listed as sorefenib): did not develop evidence of PAH; right heart hypertrophy (RV/LV+Septum) ([2]; hypoxia+SU5416, sorafenib oral daily 2.5 mg/kg): prevented hypoxia+SU5416 development of right heart hypertrophy; remodeling of the lung vasculature (histopathology, Heath-Edwards grading) (rat lung vasculature): Prevents Remodeling; remodeling of the lung vasculature (histopathology, Heath-Edwards grading) (rat lung vasculature; listed as sorafenib): dramatic improvement; FS (%) [4, 8]: 78 ± 5%; LV Mass (gram) [4, 8]: 1.60 ± 0.30 gram; LVPW [4, 8]: 0.21 ± 0.03; MPA [4, 8]: 0.48 ± 0.07; PA PG (mmHg) [4, 8]: 6.10 ± 5.52 mmHg; RVAW [4, 8]: 0.11; MTD ([5]; known MTD, oral): 400 mg twice daily; drug interactions with warfarin or digoxin ([5]; previous sorafenib studies): have not demonstrated known drug interactions
CCCCC[C@H](O)CC[C@@H]1[C@H]2Cc3cccc(OCC(=O)O)c3C[C@H]2C[C@H]1O [Treprostinil]	–	–	–	–	–	–	–	–	–	–	–	–	–	–	–	–	–	–	–	–	chemical stability [6]: chemically stable at room temperature and neutral pH; half-life [7]: 3 to 4 h
Cc1ccc(NC(=O)c2ccc(CN3CCN(C)CC3)cc2)cc1Nc1nccc(-c2cccnc2)n1 [imatinib]	–	–	–	–	–	–	–	–	–	–	–	–	–	–	–	–	–	–	–	–	improvement in 6MW (PAH patients): 60%
